For assay [1], the target named is T1, Aβ oligomers (Homo sapiens, UniProt P05067).
T1 construct: Ser^26 depsipeptide iso-Aβ (1–42) was used; made in house; host or cells: chemical peptide synthesis (no expression host)
Nature of the assay: Isothermal titration calorimetry (ITC) binding to Aβ oligomers. The note with it: KD ITC, Table 1, PBS pH 7.4, 285 K, Aβ 100 µM in cell, ligand 250 µM in syringe, two independent site model. (In general: In ITC the heat of successive injections is recorded.)

Assay [2] has as its target T1, Aβ oligomers. Nature of the assay: Sandwich ELISA binding of biotin-tagged conjugates to Aβ. The text has this: To study the role of certain structure elements in the binding affinity, a set of new foldamer sequences were designed (Figure 2) and ligated to lysine-dendron scaffolds having a focal symmetry. This template with biotin affinity tag can be easily synthesized by solid phase peptide synthesis and immobilized on a streptavidin coated support such as the surface of the ELISA plate. Structural changes included fine-tuning the side-chain properties (2b–2d), changing the position of ionic residues (2e) and introducing bulky bicyclic side-chains (2f–2i).
The binding affinities of 2b–2i to Aβ oligomers were tested in ITC experiments. In such cases where the fitting failed due to low heat response or poor solubility, sandwich ELISA experiments were performed to enable the comparison of all conjugates (see Supporting Information for details).
The apparent dissociation constants for the complete set of new conjugates were calculated individually from the data of the ELISA experiments as well. Comparing the KD values of 2f–2i in this case, the replacement of ACHC to ABHC had only a minor effect on the Aβ binding. The cyclic β-amino acid ACHC not only provides the helical conformation of such a short foldamer but also protects the ionic residues from solvent upon binding due to its hydrophobicity.

In a further assay the test system is acute hippocampal slices. Put plainly: Ex vivo MTT tissue viability test on acute hippocampal slices treated with Aβ oligomers after oxygen-glucose deprivation. The assay is classed as cell-based, Wistar rats. The note with it: 4 h, Aβ oligomers 10 µM alone, untreated slices as control, mean ± SD, N = 4. The source says:
We have applied a rapid, reliable assay, which utilizes acute hippocampal slices for MTT measurements to test the short-term effect of toxic Aβ oligomers on the viability of the surviving cells in the tissue. Acute hippocampal brain slices can be maintained ex vivo only for a few hours, thus excluding the possibility of studying the long-term effects of neuroprotective compounds. Still, the combination of oxygen-glucose deprivation and treatment with Aβ oligomers makes this assay applicable on a short-term basis, which is otherwise impossible with convenient in vitro methods. The Aβ treatment combined with this short and mild oxygen-glucose deprivation provided a relevant ex vivo model for the aging brain and a standard MTT assay was used for the quantification of toxicity (Table S2). Treatment with Aβ oligomers in 10 µM concentration caused a significant decrease in tissue viability after 4 h (Figure 5, white column, 43.2 ± 1.6% of control). To test the neuroprotective effects of the compounds, slices were treated with Aβ in the presence of equimolar amounts of 1, 3–6, respectively. […]
Toxicity measurements were carried out using freshly prepared slices (N = 2 × 10 for one case) of the brains of 10 ± 1-week-old Wistar rats (4 animals, thickness of the brain slices: 400 µm). […] After the treatment, brain slice viability was measured using a specific MTT assay. […]
A general note: Tetrazolium dyes change colour on reduction, which living cells bring about.

Assay [3] has as its system SH-SY5Y neuroblastoma cells. In kind it is cell-based, human. The note with it: 24 h, Aβ oligomers 10 µM alone, mean ± SEM, N = 4–8. On the procedure: Real-time cell impedance measurement assay (xCELLigence) was utilized to test the effects of Aβ and the protective effect of the compounds 1, 3–5 on SH-SY5Y neuroblastoma cells. Cells were treated with Aβ oligomers in the concentration of 10 µM either alone or together with compounds 1, 3–5, which were applied in two different concentrations (5 or 10 μM). The cell index was monitored continuously for 48 h. Figure 6 represents the viability readouts after 24 h and 48 h (Table S3). Aβ caused a significant reduction in the viability after 24 h (red column, 85.1 ± 2.6% of control) reflecting the effects of an elongated treatment. […]
Figure 6 Cell viability readouts based on impedance analysis after treatments at different time points: (A) 24 h (B) 48 h. […]
Differentiated SH-SY5Y cells were grown in Dulbecco’s Modified Eagle’s Medium (DMEM) and F12-Ham’s culture medium at a 1:1 ratio supplemented with 10% (v/v) fetal bovine serum (FBS), 1% (v/v) L-glutamine, and 50 µg/mL gentamicin. […] Cells were cultured for 5–7 days and monitored every 15 min until the end of experiments. […] The resulting data was analyzed using real-time cell analyzer software (RTCA, Roche, Basel, Switzerland) and exported to Excel.

T1 sequence (P05067 672-713 limits assumed): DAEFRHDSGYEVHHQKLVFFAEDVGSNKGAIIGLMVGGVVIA

As a reminder, the Kd is the free concentration of one partner at which half of the binding sites on the other are occupied at equilibrium, for simple one-to-one binding. A high value points to lower affinity. `CC1(C)[C@H]2C[C@H](N)[C@@H](C(=O)N[C@@H](CCCNC(=N)N)CC(=O)N[C@H]3CCCC[C@@H]3C(=O)N[C@H]3CCCC[C@@H]3C(=O)N[C@@H](CC(=O)O)CC(=O)N[C@H]3CCCC[C@@H]3C(=O)NCC(=O)NCC(=O)N[C@@H](CSC3CC(=O)N(CCC(=O)NCCCC[C@H](NC(=O)CCN4C(=O)CC(SC[C@H](NC(=O)CNC(=O)CNC(=O)[C@H]5CCCC[C@@H]5NC(=O)C[C@H](CC(=O)O)NC(=O)[C@H]5CCCC[C@@H]5NC(=O)[C@H]5CCCC[C@@H]5NC(=O)C[C@H](CCCNC(=N)N)NC(=O)[C@@H]5[C@@H](N)C[C@H]6C[C@@H]5C6(C)C)C(N)=O)C4=O)C(=O)NCCCC[C@H](NC(=O)[C@H](CCCCNC(=O)CCN4C(=O)CC(SC[C@H](NC(=O)CNC(=O)CNC(=O)[C@H]5CCCC[C@@H]5NC(=O)C[C@H](CC(=O)O)NC(=O)[C@H]5CCCC[C@@H]5NC(=O)[C@H]5CCCC[C@@H]5NC(=O)C[C@H](CCCNC(=N)N)NC(=O)[C@@H]5[C@@H](N)C[C@H]6C[C@@H]5C6(C)C)C(N)=O)C4=O)NC(=O)CCN4C(=O)CC(SC[C@H](NC(=O)CNC(=O)CNC(=O)[C@H]5CCCC[C@@H]5NC(=O)C[C@H](CC(=O)O)NC(=O)[C@H]5CCCC[C@@H]5NC(=O)[C@H]5CCCC[C@@H]5NC(=O)C[C@H](CCCNC(=N)N)NC(=O)[C@@H]5[C@@H](N)C[C@H]6C[C@@H]5C6(C)C)C(N)=O)C4=O)C(=O)N[C@@H](CCCCNC(=O)CCCC[C@@H]4SC[C@@H]5NC(=O)N[C@@H]54)C(N)=O)C3=O)C(N)=O)[C@@H]1C2` (some centres unmarked) [Compound 2f]: the Kd on Aβ oligomers [1] (first binding stage) came to 19.3 ± 9.4 nM; on Aβ oligomers [1] (second binding stage), 816 ± 467 nM; on Aβ oligomers [2], 1.79 ± 0.09 nM.
In the case of `CC1(C)[C@H]2C[C@H](NC(=O)[C@H]3CCCC[C@@H]3NC(=O)C[C@H](CCCNC(=N)N)NC(=O)[C@H]3CCCC[C@@H]3N)[C@@H](C(=O)N[C@@H](CC(=O)O)CC(=O)N[C@H]3CCCC[C@@H]3C(=O)NCC(=O)NCC(=O)N[C@@H](CSC3CC(=O)N(CCC(=O)NCCCC[C@H](NC(=O)CCN4C(=O)CC(SC[C@H](NC(=O)CNC(=O)CNC(=O)[C@H]5CCCC[C@@H]5NC(=O)C[C@H](CC(=O)O)NC(=O)[C@@H]5[C@@H](NC(=O)[C@H]6CCCC[C@@H]6NC(=O)C[C@H](CCCNC(=N)N)NC(=O)[C@H]6CCCC[C@@H]6N)C[C@H]6C[C@@H]5C6(C)C)C(N)=O)C4=O)C(=O)NCCCC[C@H](NC(=O)[C@H](CCCCNC(=O)CCN4C(=O)CC(SC[C@H](NC(=O)CNC(=O)CNC(=O)[C@H]5CCCC[C@@H]5NC(=O)C[C@H](CC(=O)O)NC(=O)[C@@H]5[C@@H](NC(=O)[C@H]6CCCC[C@@H]6NC(=O)C[C@H](CCCNC(=N)N)NC(=O)[C@H]6CCCC[C@@H]6N)C[C@H]6C[C@@H]5C6(C)C)C(N)=O)C4=O)NC(=O)CCN4C(=O)CC(SC[C@H](NC(=O)CNC(=O)CNC(=O)[C@H]5CCCC[C@@H]5NC(=O)C[C@H](CC(=O)O)NC(=O)[C@@H]5[C@@H](NC(=O)[C@H]6CCCC[C@@H]6NC(=O)C[C@H](CCCNC(=N)N)NC(=O)[C@H]6CCCC[C@@H]6N)C[C@H]6C[C@@H]5C6(C)C)C(N)=O)C4=O)C(=O)N[C@@H](CCCCNC(=O)CCCC[C@@H]4SC[C@@H]5NC(=O)N[C@@H]54)C(N)=O)C3=O)C(N)=O)[C@@H]1C2` (some centres unmarked) [Compound 2h], the Kd came to 8.61 ± 5.64 nM at Aβ oligomers [1] (first binding stage), 79 ± 45.9 nM at Aβ oligomers [1] (second binding stage) and 1.35 ± 0.08 nM on Aβ oligomers [2].
With “Aβ oligomers: oligomers of amyloid β (1–42) prepared from Ser26 depsipeptide iso-Aβ (1–42)”, the “tissue viability, Aβ oligomers alone” value in the assay on acute hippocampal slices is 43.2 ± 1.6 % of control. Further, the “viability, Aβ alone” value in assay [3] is on record as 85.1 ± 2.6 % of control.
